Reference: publication PMC3661511, “Impact of Glucocorticoid Receptor Density on Ligand-Independent Dimerization, Cooperative Ligand-Binding and Basal Priming of Transactivation: A Cell Culture Model” (PLoS ONE, 2013)
Where two headings read alike, the source gives them in different places.

T1: GRwt (Homo sapiens, UniProt P04150)
T1 sequence (P04150 1-777): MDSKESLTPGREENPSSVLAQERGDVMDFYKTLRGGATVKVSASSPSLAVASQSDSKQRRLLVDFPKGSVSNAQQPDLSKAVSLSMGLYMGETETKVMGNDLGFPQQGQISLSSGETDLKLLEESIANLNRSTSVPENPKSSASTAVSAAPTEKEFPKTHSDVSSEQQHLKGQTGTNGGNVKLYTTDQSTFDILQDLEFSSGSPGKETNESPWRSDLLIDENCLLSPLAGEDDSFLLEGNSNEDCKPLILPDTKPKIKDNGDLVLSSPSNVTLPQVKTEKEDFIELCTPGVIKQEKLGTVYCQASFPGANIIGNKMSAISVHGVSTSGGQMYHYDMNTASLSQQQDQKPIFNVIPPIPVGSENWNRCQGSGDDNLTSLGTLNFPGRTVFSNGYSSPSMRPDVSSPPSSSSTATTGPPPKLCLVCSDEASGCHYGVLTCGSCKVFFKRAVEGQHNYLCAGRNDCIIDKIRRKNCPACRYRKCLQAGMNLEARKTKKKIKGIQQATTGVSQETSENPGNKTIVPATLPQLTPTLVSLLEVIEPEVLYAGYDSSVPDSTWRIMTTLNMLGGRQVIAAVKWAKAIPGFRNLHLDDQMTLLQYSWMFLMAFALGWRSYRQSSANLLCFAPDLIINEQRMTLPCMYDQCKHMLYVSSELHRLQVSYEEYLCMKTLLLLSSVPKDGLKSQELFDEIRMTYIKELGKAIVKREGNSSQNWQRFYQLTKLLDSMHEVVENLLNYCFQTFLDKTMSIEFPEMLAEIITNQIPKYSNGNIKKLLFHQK

T2: GRdim (Homo sapiens, UniProt P04150, A458T)
T2 sequence (P04150 1-777 A458T): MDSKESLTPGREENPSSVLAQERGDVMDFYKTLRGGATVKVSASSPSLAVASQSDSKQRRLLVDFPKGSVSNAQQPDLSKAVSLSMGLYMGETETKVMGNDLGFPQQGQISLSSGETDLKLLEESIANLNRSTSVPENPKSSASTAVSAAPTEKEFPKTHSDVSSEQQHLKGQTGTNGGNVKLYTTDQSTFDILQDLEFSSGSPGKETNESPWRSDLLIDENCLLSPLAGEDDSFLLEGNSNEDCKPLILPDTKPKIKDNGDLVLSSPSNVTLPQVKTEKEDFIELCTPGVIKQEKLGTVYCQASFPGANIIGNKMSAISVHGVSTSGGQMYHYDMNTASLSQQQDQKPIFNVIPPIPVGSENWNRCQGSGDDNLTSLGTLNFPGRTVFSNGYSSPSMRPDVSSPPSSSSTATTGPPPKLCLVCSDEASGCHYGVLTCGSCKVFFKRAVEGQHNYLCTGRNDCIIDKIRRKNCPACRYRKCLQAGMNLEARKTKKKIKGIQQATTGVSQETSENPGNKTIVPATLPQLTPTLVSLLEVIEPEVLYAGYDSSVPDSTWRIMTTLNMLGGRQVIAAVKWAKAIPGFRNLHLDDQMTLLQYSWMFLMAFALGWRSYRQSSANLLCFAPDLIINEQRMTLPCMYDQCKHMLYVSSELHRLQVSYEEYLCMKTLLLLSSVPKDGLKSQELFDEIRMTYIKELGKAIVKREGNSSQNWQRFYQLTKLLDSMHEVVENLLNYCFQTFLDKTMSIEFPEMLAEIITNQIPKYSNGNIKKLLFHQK

T3: Flag-tagged human glucocorticoid receptor alpha, wild type (pEFFlaghGRα) (human, UniProt P04150 1-777)
T3 construct: glucocorticoid receptor alpha (hGRα), human, wild type; construct pEFFlaghGRα, molecular mass 96 kDa as printed; also called Flag-GR; Flag-GRwt; source: COS-1, transiently transfected (DEAE-dextran), in lysate
T3 sequence (looked up): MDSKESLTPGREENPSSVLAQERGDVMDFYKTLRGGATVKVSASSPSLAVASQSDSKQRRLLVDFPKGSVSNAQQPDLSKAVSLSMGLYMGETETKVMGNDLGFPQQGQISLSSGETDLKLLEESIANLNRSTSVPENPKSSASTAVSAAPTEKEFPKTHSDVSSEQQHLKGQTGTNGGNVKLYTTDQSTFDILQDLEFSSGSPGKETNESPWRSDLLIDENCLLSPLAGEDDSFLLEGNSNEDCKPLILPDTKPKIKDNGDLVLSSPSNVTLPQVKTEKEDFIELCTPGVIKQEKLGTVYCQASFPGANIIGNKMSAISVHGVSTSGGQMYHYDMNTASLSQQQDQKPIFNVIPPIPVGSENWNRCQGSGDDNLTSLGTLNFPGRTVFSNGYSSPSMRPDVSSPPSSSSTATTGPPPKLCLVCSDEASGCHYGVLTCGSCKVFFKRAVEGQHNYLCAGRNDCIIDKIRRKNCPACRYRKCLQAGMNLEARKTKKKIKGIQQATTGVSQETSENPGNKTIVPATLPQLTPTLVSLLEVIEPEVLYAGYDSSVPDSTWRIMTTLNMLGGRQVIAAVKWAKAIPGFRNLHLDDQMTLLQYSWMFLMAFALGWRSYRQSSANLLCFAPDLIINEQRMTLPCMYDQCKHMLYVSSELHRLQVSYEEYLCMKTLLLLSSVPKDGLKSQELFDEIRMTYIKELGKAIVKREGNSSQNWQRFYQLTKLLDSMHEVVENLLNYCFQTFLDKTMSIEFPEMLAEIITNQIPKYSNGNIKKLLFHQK


Key:
GRwt [1] = settings: COS-1 cells transiently transfected with high levels of GRwt; cited from earlier work
GRwt [2] = target: T1, GRwt; test: Promoter-reporter transactivation (pTAT-GRE2-E1b-luc) in COS-1 cells, GRwt; format: cell-based; settings: for EC50: read-out: Potency (log EC50) (converted)
Description: (§1) Cells were transfected with low, medium or high GRwt, low or medium GRdim and 3000 ng pTAT-GRE2-E1b-luc filled to 14550 ng total plasmid with empty vector. Cells were replated 24 h later into 96-well plates (4×10^4 cells/well) in charcoal-stripped DMEM. […] Cells were lysed with 30 µl of passive lysis buffer (Promega), and subjected to a freeze thaw cycle. Luciferase activity was determined using a luciferase assay kit (Promega). Light emission was measured in a Veritas microplate luminometer (Turner Biosystems). Luciferase relative light units were normalized against protein concentrations. Sigmoidal dose-response curves were fit to the experimental data which generated basal induction (bottom), maximal induction (top-bottom), fold-induction (top/bottom), and log EC50.

GRdim = target: T2, GRdim; test: Promoter-reporter transactivation (pTAT-GRE2-E1b-luc) in COS-1 cells, GRdim; format: cell-based
Description: as §1

[3] = target: T3, Flag-tagged human glucocorticoid …; test: co-IP; medium or high GR levels co-transfected in COS-1 cells; cells treated 1 h with vehicle (ethanol) or 10^-6 M DEX; 200 µg lysate protein on anti-FLAG M2 affinity gel beads, 16 h at 4°C, Buffer A with 2.5% casein; immunoblot with anti-GR; GFP-GR pull-down normalized to Flag-GR; settings: partners not purified
[4] = target: T3, Flag-tagged human glucocorticoid …; test: co-IP; low GR levels co-transfected in COS-1 cells; cells treated 1 h with vehicle (ethanol), 10^-6 M DEX or 10^-5 M CpdA; 600 µg lysate protein on anti-FLAG M2 affinity gel beads, 16 h at 4°C, Buffer A with 2.5% casein; immunoblot with anti-GR; GFP-GR pull-down normalized to Flag-GR; settings: partners not purified

Row | Maximal induction (RLU/mg protein) (GRwt [2]; GRwt concentration Low) | Maximal induction (RLU/mg protein) (GRwt [2]; GRwt concentration Medium) | Molecule | Maximal induction (RLU/mg protein) (GRdim; GRdim concentration Low) | Maximal induction (RLU/mg protein) (GRdim; GRdim concentration Medium) | also measured
1 |  |  | C[C@@H]1C[C@H]2[C@@H]3CCC4=CC(=O)C=C[C@]4(C)[C@@]3(F)[C@@H](O)C[C@]2(C)[C@@]1(O)C(=O)CO [DEX, Dexamethasone] |  |  | Kd (GRwt [1]): 0.0126 µM
2 | 2.8 x 10^4 ± 7.2 x 10^3 RLU/mg protein | 8.8 x 10^4 ± 6 x 10^3 RLU/mg protein | C[C@]12CCC(=O)C=C1CC[C@@H]1[C@@H]2[C@@H](O)C[C@@]2(C)[C@H]1CC[C@]2(O)C(=O)CO [F, cortisol] | 3.7 x 10^4± 8.3 x 10^3 RLU/mg protein | 2.2 x 10^5 ± 5.7 x 10^4 RLU/mg protein | 
3 | 3.5 x 10^4 ± 8.3 x 10^3 RLU/mg protein | 1.5 x 10^5 ± 2.3 x 10^4 RLU/mg protein | CC(=O)O[C@]1(C(C)=O)CC[C@H]2[C@@H]3C[C@H](C)C4=CC(=O)CC[C@]4(C)[C@H]3CC[C@@]21C [MPA, medroxyprogesterone acetate] |  |  | EC50 (GRwt [2]; GRwt concentration Low, pTAT-GRE2-Elb-luc, 24h): 0.0234 µM; EC50 (GRwt [2]; GRwt concentration Medium): 0.00871 µM
4 |  |  | GFP-tagged dimerization-deficient glucocorticoid receptor (pEGFP-C2-GRA477T, carrying the GRdim sequence from pHisGRA458T) (receptor, human, UniProt P04150 1-777, looked up, the plasmid's name says A477T, the text A458T; also called GFP-GRdim; source: COS-1, transiently transfected (DEAE-dextran), in lysate) MDSKESLTPGREENPSSVLAQERGDVMDFYKTLRGGATVKVSASSPSLAVASQSDSKQRRLLVDFPKGSVSNAQQPDLSKAVSLSMGLYMGETETKVMGNDLGFPQQGQISLSSGETDLKLLEESIANLNRSTSVPENPKSSASTAVSAAPTEKEFPKTHSDVSSEQQHLKGQTGTNGGNVKLYTTDQSTFDILQDLEFSSGSPGKETNESPWRSDLLIDENCLLSPLAGEDDSFLLEGNSNEDCKPLILPDTKPKIKDNGDLVLSSPSNVTLPQVKTEKEDFIELCTPGVIKQEKLGTVYCQASFPGANIIGNKMSAISVHGVSTSGGQMYHYDMNTASLSQQQDQKPIFNVIPPIPVGSENWNRCQGSGDDNLTSLGTLNFPGRTVFSNGYSSPSMRPDVSSPPSSSSTATTGPPPKLCLVCSDEASGCHYGVLTCGSCKVFFKRAVEGQHNYLCTGRNDCIIDKIRRKNCPACRYRKCLQAGMNLEARKTKKKIKGIQQATTGVSQETSENPGNKTIVPATLPQLTPTLVSLLEVIEPEVLYAGYDSSVPDSTWRIMTTLNMLGGRQVIAAVKWAKAIPGFRNLHLDDQMTLLQYSWMFLMAFALGWRSYRQSSANLLCFAPDLIINEQRMTLPCMYDQCKHMLYVSSELHRLQVSYEEYLCMKTLLLLSSVPKDGLKSQELFDEIRMTYIKELGKAIVKREGNSSQNWQRFYQLTKLLDSMHEVVENLLNYCFQTFLDKTMSIEFPEMLAEIITNQIPKYSNGNIKKLLFHQK |  |  | GFP-GR pull-down after ethanol, relative to DEX-induced GRwt set at 100 percent (high GR level) [3]: 36 to 66%; GFP-GR pull-down after ethanol, relative to DEX-induced GRwt set at 100 percent (low GR level) [4]: 36 to 66%

Row | Molecule | Maximal induction (RLU/mg protein) (GRwt [2]; GRwt concentration Low) | Maximal induction (RLU/mg protein) (GRwt [2]; GRwt concentration Medium) | Maximal induction (RLU/mg protein) (GRdim; GRdim concentration Low) | Maximal induction (RLU/mg protein) (GRdim; GRdim concentration Medium) | also measured
5 | CC#C[C@]1(O)CC[C@H]2[C@@H]3CCC4=CC(=O)CCC4=C3[C@@H](c3ccc(N(C)C)cc3)C[C@@]21C [RU486, mifepristone] | 1.8 x 10^4 ± 3.7 x 10^3 RLU/mg protein | 6.4 x 10^4 ± 7.5 x 10^3 RLU/mg protein | 7.1 x 10^4 ± 8.7 x 10^3 RLU/mg protein | 4.0 x 10^5 ± 7.8 x 10^4 RLU/mg protein | 
